Source: the supplement of paper PMC10307832

Legend:
Assay in all cases: relative viability (nuclei count vs DMSO), 5 days (fraction); higher = more cells survive
BAY61-3606 + Phenformin = compound: COC1=C(C=C(C=C1)C2=CC3=NC=CN3C(=N2)NC4=C(C=CC=N4)C(=O)N)OC [BAY61-3606] + N=C(N)NC(=N)NCCc1ccccc1 [Phenformin] (partner 250 µM)
How it was run: (§1)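 Relative viability equals treated-well nuclei counts divided by vehicle-well nuclei counts. Counts came from 4× images of lung cancer cell lines grown in 1536-well plates for 5 days after pin-tool dosing on the day after seeding. Dosing used one drug alone or a fixed anchor-drug dose plus five library-drug doses (not always all listed) in √10 steps, and values are medians of duplicate plates.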

Doxorubicin + Luminespib = compound: COc1cccc2c1C(=O)c1c(O)c3c(c(O)c1C2=O)C[C@@](O)(C(=O)CO)C[C@@H]3O[C@H]1C[C@H](N)[C@H](O)[C@H](C)O1 [Doxorubicin] + CCNC(=O)c1noc(-c2cc(C(C)C)c(O)cc2O)c1-c1ccc(CN2CCOCC2)cc1 [Luminespib] (partner 0.01 µM)
How it was run: as §1

Doxorubicin + Alpelisib = compound: COc1cccc2c1C(=O)c1c(O)c3c(c(O)c1C2=O)C[C@@](O)(C(=O)CO)C[C@@H]3O[C@H]1C[C@H](N)[C@H](O)[C@H](C)O1 [Doxorubicin] + Cc1nc(NC(=O)N2CCC[C@H]2C(N)=O)sc1-c1ccnc(C(C)(C)C(F)(F)F)c1 [Alpelisib] (partner 2 µM)
How it was run: as §1

BAY61-3606 + Navitoclax = compound: COC1=C(C=C(C=C1)C2=CC3=NC=CN3C(=N2)NC4=C(C=CC=N4)C(=O)N)OC [BAY61-3606] + CC1(C)CCC(c2ccc(Cl)cc2)=C(CN2CCN(c3ccc(C(=O)NS(=O)(=O)c4ccc(N[C@H](CCN5CCOCC5)CSc5ccccc5)c(S(=O)(=O)C(F)(F)F)c4)cc3)CC2)C1 [Navitoclax] (partner 0.5 µM)
How it was run: as §1

Cell Line | relative viability (BAY61-3606 + Phenformin; first compound 0.02 µM) | relative viability (BAY61-3606 + Phenformin; first compound 0.06325 µM) | relative viability (BAY61-3606 + Phenformin; first compound 0.2 µM) | relative viability (BAY61-3606 + Phenformin; first compound 0.6325 µM) | relative viability (BAY61-3606 + Phenformin; first compound 2 µM) | relative viability (Doxorubicin + Luminespib; first compound 0.001 µM) | relative viability (Doxorubicin + Luminespib; first compound 0.003162 µM) | relative viability (Doxorubicin + Luminespib; first compound 0.01 µM) | relative viability (Doxorubicin + Luminespib; first compound 0.03162 µM) | relative viability (Doxorubicin + Luminespib; first compound 0.1 µM) | relative viability (Doxorubicin + Alpelisib; first compound 0.001 µM) | relative viability (Doxorubicin + Alpelisib; first compound 0.003162 µM) | relative viability (Doxorubicin + Alpelisib; first compound 0.01 µM) | relative viability (Doxorubicin + Alpelisib; first compound 0.03162 µM) | relative viability (Doxorubicin + Alpelisib; first compound 0.1 µM) | relative viability (BAY61-3606 + Navitoclax; first compound 0.02 µM) | relative viability (BAY61-3606 + Navitoclax; first compound 0.06325 µM) | relative viability (BAY61-3606 + Navitoclax; first compound 0.2 µM) | relative viability (BAY61-3606 + Navitoclax; first compound 0.6325 µM) | relative viability (BAY61-3606 + Navitoclax; first compound 2 µM)
NCI-H2228 | 0.37 | 0.294 | 0.368 | 0.276 | 0.26 | 0.208 | 0.139 | 0.2 | 0.151 | 0.135 | 0.724 | 0.822 | 0.647 | 0.393 | 0.198 | 1.18 | 0.736 | 0.658 | 1.08 | 0.713
NCI-H2347 | 0.563 | 0.359 | 0.544 | 0.455 | 0.538 | 0.385 | 0.547 | 0.527 | 0.415 | 0.439 | 0.985 | 0.935 | 0.997 | 0.899 | 1.02 | 0.802 | 0.789 | 0.859 | 0.936 | 0.754
NCI-H2405 | 0.429 | 0.259 | 0.383 | 0.38 | 0.41 | 0.572 | 0.701 | 0.778 | 0.599 | 0.6 | – | 0.728 | 0.82 | 0.663 | 0.406 | 0.904 | 0.669 | 0.857 | 1.08 | 0.655
NCI-H3122 | 0.418 | 0.308 | 0.386 | 0.42 | 0.384 | 0.0793 | 0.117 | 0.102 | 0.0975 | 0.0943 | 0.835 | 0.776 | 0.815 | 0.782 | 0.768 | 0.975 | 0.962 | 1.05 | 1 | 0.987
PC-3 [JPC-3] | – | 0.491 | 0.476 | 0.454 | 0.463 | 0.661 | 0.748 | 0.683 | 0.714 | 0.615 | 1.02 | 1.02 | 1.05 | 1 | 1.03 | 0.826 | 0.849 | 0.773 | 0.805 | 0.776
PC-14 | 0.752 | 0.357 | 0.579 | 0.532 | 0.536 | 0.173 | 0.181 | 0.122 | 0.14 | 0.116 | 0.892 | 1.01 | 0.963 | 0.986 | 1.01 | 1.04 | 1.11 | 0.983 | 1.01 | 0.982
RERF-LC-KJ | 0.417 | 0.404 | 0.424 | 0.467 | 0.343 | 1.32 | 1.21 | 0.838 | 0.323 | 0.308 | 0.815 | 0.885 | 0.893 | 0.675 | 0.719 | 0.759 | 0.9 | 0.975 | 0.83 | 0.876
SK-LU-1 | 0.563 | 0.451 | 0.569 | 0.506 | 0.284 | 0.204 | 0.215 | 0.249 | 0.203 | 0.165 | 1.03 | 0.995 | 0.783 | 0.46 | 0.322 | 1.19 | 0.836 | 0.695 | 0.812 | 0.55
SK-MES-1 | 0.729 | 0.586 | 0.633 | 0.685 | 0.57 | 0.771 | 0.618 | 0.487 | 0.199 | 0.151 | 0.956 | 0.877 | 0.819 | 0.785 | 0.573 | 1.32 | 1.3 | 1.24 | 1.39 | 1.09
SW 1573 | 0.288 | 0.336 | 0.342 | 0.328 | 0.166 | 0.22 | 0.206 | 0.178 | 0.0908 | 0.0847 | 0.904 | 0.731 | 0.641 | 0.447 | 0.428 | 0.84 | 0.918 | 0.832 | 0.97 | 0.683
